Experimental data as given in patent US20120277211A1, “METHODS AND COMPOSITIONS FOR THE TREATMENT OF PSYCHOTIC DISORDERS THROUGH THE IDENTIFICATION OF THE SULT4A1-1 HAPLOTYPE” (priority 2009, published 2012).
Read-outs that look alike come from different tables or passages of the source. Marks after values point to notes of the source that are not given here.

Assays:
schizophrenia patients [1] = test system: schizophrenia patients
Description: For the analyses shown in Tables 22-24, SULT4A1-1 haplotype status was assigned as describe in Example 3, and standard statistical survival analysis using Cox's proportional hazards model was used to determine the relative risk (hazard) of discontinuing drug use. The Hazard Ratio (HR) measures the risk of an event (in this case, switching or discontinuation from the drug) relative to patient exposure or status (in this case, SULT4A1-1 positive status).
As describe in Example 11, Hazard Ratio (HR) measures the risk of an event (in this case, switching or discontinuation from the drug) relative to patient exposure or status (in this case, SULT4A1-1 status).

schizophrenia patients [2] = conditions: Phase II; for Responders: decrease PANSS ≧20%, LOCF
[3] = test system: Caucasian schizophrenia patients; assay: CATIE: hospitalization due to exacerbation of psychosis by SULT4A1-1 status; type: in vivo, human
Description: To assess if SULT4A1-1 status impacts the risk of hospitalization in Caucasians, the inventors assigned SULT4A1-1 status to each CATIE subject and evaluated hospitalization events due to exacerbation of psychosis. For this analysis, the inventors assigned a dichotomous value (positive or negative) for hospitalization status to subjects in each phase of the trial based on only the first hospitalization event for a given patient in that phase. Patients participating in Phases 1, 2, and/or 3 were included in the totals for the appropriate drug.
A Kaplan-Meier survival analysis was performed to determine whether there was a difference between the survival (hospitalization) rates for the SULT4A1-1 negative and SULT4A1-1 positive patient populations treated with each of the atypical antipsychotics. Survival plots model the fraction of the population that survived (i.e., no hospitalization event) as a function of time.

[4] = test system: Caucasian schizophrenia patients; assay: CATIE: time to discontinuation for all causes by SULT4A1-1 status; type: in vivo, human
Description: The primary endpoint for the CATIE study was time to discontinuation for all causes (Lieberman et al., 2005). Thus the inventors evaluated the effect of SULT41-1 status on this important parameter.

[5] = test system: unsegmented patient populations; conditions: cited from earlier work
[6] = test system: African American schizophrenia patients; assay: CATIE: change in total PANSS (LOCF) by SULT4A1-1 haplotype status, African Americans; type: in vivo, human; conditions: for Number of individuals with change in total PANSS ≦−20% (responders) / Number of individuals with change in total PANSS ≧−20% (non-responders): LOCF
Description: The design of the CATIE study has been described in detail by others (Lieberman et al., 2005; Stroup et al., 2003). […] A total of 738 subjects consented to provide DNA for genetic study. […] Retrospective genetic analyses, judged to be exempt from human studies requirements by an IRB, were conducted in the current study. All tested patients were studied using well established clinical endpoints comparing baseline, intermediate, and last observation carried forward (LOCF) for the PANSS scores using CATIE data. […] To remove time on drug as a variable for the CATIE trial, analysis was limited to only those patients who were randomized to a different drug following the initial washout period (drug switchers).

schizophrenia patients [7] = assay: CATIE: months of successful treatment measured by the CGI scale (TMSUCC1); type: in vivo, human
Description: The CATIE clinical data set included Clinical Global Impression (CGI) Scale, an observer-provided assessment of the psychiatric health of the patient (Stroup et al., 2003; Guy 1976). Patients are rated with the CGI Scale from 1 to 7, with higher scores indicating greater severity of illness. The CATIE study provided a response variable that measured the time (in months) of successful treatment as measured by the CGI scale (“TMSUCC1” in the CATIE data).

[8] = SULT4A1-1 negative risperidone / SULT4A1-1 negative all other drugs
[9] = Unsegmented risperidone / Unsegmented all other drugs

SMILES: Cc1nc2n(c(=O)c1CCN1CCC(c3noc4cc(F)ccc34)CC1)CCCC2 [Risperidone]
- HR, all-cause discontinuation (schizophrenia patients [1]; [8]): 0.79^a
- HR, discontinuation due to lack of efficacy (schizophrenia patients [1]; [8]): 0.88^a
- HR, all-cause discontinuation (schizophrenia patients [1]; SULT4A1-1 positive risperidone / SULT4A1-1 positive all other drugs): 1.48^a
- HR, all-cause discontinuation (schizophrenia patients [1]; [9]): 0.91^a
- HR, discontinuation due to lack of efficacy (schizophrenia patients [1]; [9]): 1.09^a
- % Responders (schizophrenia patients [2]; SULT4A1-1 Negative): 33.3%
- Nonresponders (schizophrenia patients [2]; SULT4A1-1 Negative): 8
- Responders (schizophrenia patients [2]; SULT4A1-1 Negative): 4
- % Responders (schizophrenia patients [2]; SULT4A1-1 Positive): 0%
- Nonresponders (schizophrenia patients [2]; SULT4A1-1 Positive): 1
- Responders (schizophrenia patients [2]; SULT4A1-1 Positive): 0
- HOSP, number of patients hospitalized ([3]; SULT4A1-1 negative): 16
- HOSP, rate of hospitalization ([3]; SULT4A1-1 negative): 13%
- HOSP, number of patients hospitalized ([3]; SULT4A1-1 positive): 4
- HOSP, rate of hospitalization ([3]; SULT4A1-1 positive): 11.1%
- HOSP, rate of hospitalization ([3]; Unsegmented): 12.6%
- HOSP, number of patients hospitalized ([3]; Unsegmented, Phases 1, 2 and/or 3, first event): 20
- Kaplan-Meier: difference between survival (no hospitalization) rates of SULT4A1-1 negative and positive patients ([3]; per drug): not statistically significant
- Time to discontinuation, mean ([4]; SULT4A1-1 negative): 11.3 Months
- Time to discontinuation, mean ([4]; SULT4A1-1 positive): 8.0*** Months
- Effect Size vs. FGA ([5]; first generation antipsychotics, Davis et al. (2003)): −0.25
- Effect Size vs. Placebo ([5]; meta-analysis, Leucht et al. (2009), negative = greater reduction in PANSS): −0.59
- Mean difference in total PANSS score between olanzapine and labelled drug, Meta-analysis ([5]; unsegmented populations, Leucht et al. (2009)): −1.9
- Number of individuals with change in total PANSS ≦−20% (responders) ([6]; SULT4A1-1 negative): 7
- Number of individuals with change in total PANSS ≧−20% (non-responders) ([6]; SULT4A1-1 negative): 34
- Responders ([6]; SULT4A1-1 positive): 60%
- Number of individuals with change in total PANSS ≦−20% (responders) ([6]; SULT4A1-1 positive): 3
- Number of individuals with change in total PANSS ≧−20% (non-responders) ([6]; SULT4A1-1 positive): 2
- Length of successful treatment (CGI Months), Mean (schizophrenia patients [7]; SULT4A1-1 negative): 6.88 Months
- Length of successful treatment (CGI Months), Mean (schizophrenia patients [7]; SULT4A1-1 positive): 1.76 Months
- Length of successful treatment (CGI Months), Mean (schizophrenia patients [7]; Unsegmented): 5.79 Months
